Tests used:
TSG-14 mRNA = assay: Northern blot analysis of TSG mRNA levels in FS-4 cells; format: cell-based, human; details: growth arrested FS-4 cells, 2 h; TNF 20 ng/ml, CHX 10 ug/ml, IFN-β 500 U/ml, IFN-γ 100 U/ml, IL-1-α 1 ng/ml, EGF 25 ng/ml, TGF-β 2 ng/ml, poly(I).poly(C) 50 ug/ml, TPA 100 ng/ml, A23187 1 uM, forskolin 10 uM, dBcAMP 100 uM, IBMX 100 uM
Procedure: (§1) The human diploid FS-4 foreskin fibroblast cell line (Vilcek, J. et al, Proc. Natl. Acad. Sci. USA 70:3909-3913 (1973)) was used at passage level 15 in all experiments. FS-4 cells were grown in Eagle minimal essential medium (E-MEM) supplemented with 6 mM HEPES, 3 mM Tricine, 50 μg/ml gentamicin, and 5% heat inactivated (56° C., 30 min) fetal bovine serum (FBS; GIBCO Laboratories, Grand Island, N.Y.). For experiments, 4×10^6 cells were seeded in 175 cm^2 Falcon flasks, incubated at 37° C., and allowed to grow to confluence over 6 days. The confluent monolayers were washed once with phosphate buffered saline and replenished with E-MEM containing […] FBS. The cultures were incubated in this medium for another 72 h at 37° C. to let the cells become quiescent and then treated with the appropriate agents, as specified herein.
(§2) Cytoplasmic RNA was fractionated on a 1% agarose gel containing formaldehyde and blotted onto Zeta-probe blotting membranes (Bio-Rad Laboratories, Richmond, Calif.). Cytoplasmic RNA was loaded at 10 μg/lane. Prehybridization and hybridization of Northern blots were performed as described (Lin, J.-X. et al, supra). Filters were probed with 32P-labeled cDNA insert from recombinant M13 clones and/or with 32P-labeled internal reference pHe7 insert. Northern blots were quantified with a laser densitometer.
(§3) The increase in mRNA levels ranged from about 3-fold (TSG-21) to over 100-fold (TSG-6 and TSG-8).
(§4) Table 3 provides a summary of a large number of experiments in which levels of mRNAs corresponding to the 8 distinct TSG cDNAs were determined in FS-4 cells exposed to various agents by Northern blot analysis. Three of the mRNAs (corresponding to TSG-8, TSG-12 and TSG-14) were inducible by the protein synthesis inhibitor, cycloheximide (CHX). […] In contrast, induction of the remaining 3 mRNAs by TNF was inhibited or reduced in the presence of CHX. Five of the mRNAs were inducible by IFN-β, but only two of these responded to […]. Simultaneous treatment with IFN-β reduced inducibility of TSG-1 (=IL-8) mRNA by TNF, but increased the inducibility of TSG-6 and TSG-37 mRNAs. All mRNAs were inducible by IL-1 and by the doublestranded RNA poly(I)-poly(C) or the phorbol ester 12-O-tetradecanoyl phorbol 13-acetate (TPA), but the efficiency of induction by these agents varied. Epidermal growth factor (EGF) was moderately efficient in increasing TSG-21 (=collagenase) and TSG-27 (=stromelysin) mRNA levels, and weakly stimulated several other mRNAs. PDGF and transforming growth factor-β (TGF-β) were only weakly effective, as were dibutyryl cyclic AMP (dBcAMP) and the phosphodiesterase inhibitor, isobutyl methyl xanthine (IBMX).

[1] = system: TSG-27 (Stromelysin) mRNA; assay: as above; format: cell-based, human; details: growth arrested FS-4 cells, 16 h of treatment; TNF 20 ng/ml, CHX 10 ug/ml, IFN-β 500 U/ml, IFN-γ 100 U/ml, IL-1-α 1 ng/ml, EGF 25 ng/ml, TGF-β 2 ng/ml, poly(I).poly(C) 50 ug/ml, TPA 100 ng/ml, forskolin 10 uM, IBMX 100 uM
Procedure: as §1, §2, §3, §4

[2] = system: TSG-21 (Collagenase) mRNA; assay: as above; format: cell-based, human; details: growth arrested FS-4 cells, 16 h of treatment; TNF 20 ng/ml, CHX 10 ug/ml, IFN-β 500 U/ml, IFN-γ 100 U/ml, IL-1-α 1 ng/ml, EGF 25 ng/ml, TGF-β 2 ng/ml, poly(I).poly(C) 50 ug/ml, TPA 100 ng/ml, forskolin 10 uM, IBMX 100 uM
Procedure: as §1, §2, §3, §4

TSG-12 mRNA = assay: as above; format: cell-based, human; details: growth arrested FS-4 cells, 2 h; TNF 20 ng/ml, CHX 10 ug/ml, IFN-β 500 U/ml, IFN-γ 100 U/ml, IL-1-α 1 ng/ml, EGF 25 ng/ml, TGF-β 2 ng/ml, poly(I).poly(C) 50 ug/ml, TPA 100 ng/ml, A23187 1 uM, forskolin 10 uM, dBcAMP 100 uM, IBMX 100 uM
Procedure: as §1, §2, §3, §4

TSG-37 (MT-II) mRNA = assay: as above; format: cell-based, human; details: growth arrested FS-4 cells, 2 h; TNF 20 ng/ml, CHX 10 ug/ml, IFN-β 500 U/ml, IFN-γ 100 U/ml, IL-1-α 1 ng/ml, EGF 25 ng/ml, TGF-β 2 ng/ml, poly(I).poly(C) 50 ug/ml, TPA 100 ng/ml, A23187 1 uM, forskolin 10 uM, dBcAMP 100 uM, IBMX 100 uM
Procedure: as §1, §2, §3, §4

TSG-1 (IL-8) mRNA = assay: as above; format: cell-based, human; details: growth arrested FS-4 cells, 2 h; TNF 20 ng/ml, CHX 10 ug/ml, IFN-β 500 U/ml, IFN-γ 100 U/ml, IL-1-α 1 ng/ml, EGF 25 ng/ml, TGF-β 2 ng/ml, poly(I).poly(C) 50 ug/ml, TPA 100 ng/ml, A23187 1 uM, forskolin 10 uM, dBcAMP 100 uM, IBMX 100 uM
Procedure: as §1, §2, §3, §4

TSG-6 mRNA = assay: as above; format: cell-based, human; details: growth arrested FS-4 cells, 2 h; TNF 20 ng/ml, CHX 10 ug/ml, IFN-β 500 U/ml, IFN-γ 100 U/ml, IL-1-α 1 ng/ml, EGF 25 ng/ml, TGF-β 2 ng/ml, poly(I).poly(C) 50 ug/ml, TPA 100 ng/ml, A23187 1 uM, forskolin 10 uM, dBcAMP 100 uM, IBMX 100 uM
Procedure: as §1, §2, §3, §4

TSG-8 (MCAF) mRNA = assay: as above; format: cell-based, human; details: growth arrested FS-4 cells, 2 h; TNF 20 ng/ml, CHX 10 ug/ml, IFN-β 500 U/ml, IFN-γ 100 U/ml, IL-1-α 1 ng/ml, EGF 25 ng/ml, TGF-β 2 ng/ml, poly(I).poly(C) 50 ug/ml, TPA 100 ng/ml, A23187 1 uM, forskolin 10 uM, dBcAMP 100 uM, IBMX 100 uM
Procedure: as §1, §2, §3, §4

[3] = Stability of the TSG-6/IαI complex to denaturants and enzymes; format: physicochemical
Procedure: 100 μL of a TN-5 B insect cell culture supernatant containing TSG-6 protein was incubated with 100 μL of a 1:50 dilution of human serum for 1 hr. at 37° C. Thereafter, one 100-μL aliquot was mixed with 2 mL of 8 M urea and concentrated in a Centricon-10 unit to 100 μL (lane 2); the other aliquot was left untreated (lane 1). The reaction mixtures were then separated by SDS-PAGE and subjected to Western blot analysis with anti-TSG-6 antibody.
Partially purified IαI was incubated in the absence (lane 1) or presence of purified TSG-6 protein (lanes 3-5) at 37° C. for 1 hr. The sample containing both IαI and TSG-6 protein was divided into aliquots and further incubated without enzyme (lane 3), with 800 milliunits of chondroitin sulfate ABC lyase (lane 4), or with 1.6 units of hyaluronidase (lane 5). Lane 2 is a TSG-6 control without IαI. The reaction mixtures were separated by SDS-PAGE and analyzed by Western blotting with anti-TSG-6 antibody.
The Stable Crosslink in the TSG-6/IαI COmplex is Provided by a Gylcosaminoglycan Chain. The stability of the 120 kDa TSG-6/IαI complex during SDS-PAGE under reducing conditions raises the question of the nature of the interaction between TSG-6 and the other components of the complex.
It is known that the three polypeptide chains of IαI are cross-linked by a chondroitin sulfate chain (Enghild et al, J. Biol. Chem. 264:15975-15981 (1989); Jenssen et al, FEBS Lett. 230:195-200 (1988); Balduyck et al, Biol. Chem. Hoppe-Seyler 370:329-336 (1989). It has been shown that bikunin, HC2 of IαLI, and HC3 of pre-α-inhibitor (PαI) are covalently bound to chondroitin 4-sulfate (Enghild et al, J. Biol. Chem. 264:15975-15981 (1989); J. Bio. Chem. 266:747-751 (1991); J. Biol. Chem. 268:8711-8716 (1993). To determine if cross-linking via chondroitin sulfate is also required for the stability of the TSG-6/IαI complex, purified TSG-6 protein and IαI were first incubated together to allow the formation of the complex and then treated with chondroitin sulfate ABC lyase from Proteus vulgaris or hyaluronidase from Streptomyces hyalurolyticus.

| Substance | Relative Increase in mRNA Level TSG-14 (TSG-14 mRNA) | Relative Increase in mRNA Level TSG-27 (Stromelysin) [1] | Relative Increase in mRNA Level TSG-21 (Collagenase) [2] | Relative Increase in mRNA Level TSG-12 (TSG-12 mRNA) | Relative Increase in mRNA Level TSG-37 (MT-II) (TSG-37 (MT-II) mRNA) | Relative Increase in mRNA Level TSG-1 (IL-8) (TSG-1 (IL-8) mRNA) | Relative Increase in mRNA Level TSG-6 (TSG-6 mRNA) | Relative Increase in mRNA Level TSG-8 (MCAF) (TSG-8 (MCAF) mRNA) | stability of the 120-kDa complex to 8 M urea ([3]; 8 M urea added before SDS-PAGE) | stability of the complex to boiling in 2% SDS and 5% β-mercaptoethanol ([3]; SDS-PAGE under reducing conditions) | effect of chondroitin sulfate ABC lyase on the complex ([3]; preformed complex treated with chondroitin sulfate ABC lyase from Proteus vulgaris) | effect of hyaluronidase on the complex ([3]; preformed complex treated with hyaluronidase from Streptomyces hyalurolyticus) | stability of the complex to 8 M guanidine hydrochloride ([3]; treatment with 8 M guanidine hydrochloride, Western blot) |
| --- | --- | --- | --- | --- | --- | --- | --- | --- | --- | --- | --- | --- | --- |
| EGF: Epidermal growth factor | + | ++ | ++ | + | + | 0 | 0 | + |  |  |  |  |  |
| IFN-γ: E. coli-derived human gamma interferon | 0 | 0 | 0 | + | 0 | 0 | 0 | ++ |  |  |  |  |  |
| PDGF | + | 0 | 0 | + | 0 | 0 | 0 | + |  |  |  |  |  |
| TGF-β | 0 | 0 | 0 | 0 | 0 | 0 | 0 |  |  |  |  |  |  |
| TSG-6/IαI complex: stable 120 kDa complex containing TSG-6 protein, bikunin and HC2 of IαI |  |  |  |  |  |  |  |  | did not affect | resistance | complete disappearance of the complex | no effect | still detectable |

Reference: US6518401B2, “Tumor necrosis factor stimulated gene 6 (TSG-6) protein” (New York University, priority 1991, dated 2003)
